Measured values reported in patent US6610682B2, “Pharmaceutical compositions and methods for the treatment of arteriosclerosis” (Sankyo Company, Limited, priority 1996, dated 2003).

Legend:
Assay type in all cases: in vivo, rabbit
[1] = system: WHHL rabbits; assay: Arterial sclerosis progress inhibitory effect: surface area of aortic lesions (Example 2, 31 weeks); settings: oral, CS-866 0.5 mg/kg, pioglitazone 20 mg/kg, BRL-49653 2.5 mg/kg, alone or combined, autopsy in 31st week
Procedure: A certain amount of an agent was administered orally for 31 weeks to 2-3 months old WHHL rabbits, Watanabe genetically hyperlipemic rabbits: described supra (Biochimica et Biophysica Acta), etc., in groups of 5 to 7 animals each. Incidentally, food consumption was restricted to 100 g/day per animal. Blood samples were collected immediately before administration of the agent and 8, 16, 24 and 31 weeks after the start of administration to measure total cholesterol levels (mg/dl). There were no changes observed in any of the dose groups as compared with the control group to which no agents were administered. In addition, the test animals were subjected to autopsy in the 31st week to investigate the surface area of aortic lesions (%) and the incidence of xanthochromia in finger joints.

[2] = system: WHHL rabbits; assay: Arterial sclerosis progress inhibitory effect: surface area of aortic lesions (Example 1, 32 weeks); settings: oral, CS-866 1 mg/kg, troglitazone 25 mg/kg, alone or combined, autopsy in 32nd week
Procedure: (§1) A certain amount of an agent was administered orally for 32 weeks to 2-3 months old WHHL rabbits, Watanabe genetically hyperlipemic rabbits: supra (Biochimica et Biophysica Acta), etc., in groups of 4 to 7 animals each. Incidentally, food consumption was restricted to 120 g/day per animal. Blood samples were collected immediately before administration of the agent and 4, 8, 12, 16, 20, 24, 28 and 32 weeks after the start of administration to measure total cholesterol levels (mg/dl). There were no changes observed in any of the dose groups as compared with the control group to which no agents were administered. The test animals were subjected to autopsy in the 32nd week to investigate the surface area of aortic lesions (%) and the incidence of xanthochromia in finger joints (%).

[3] = system: WHHL rabbits; assay: Incidence of xanthochromia in finger joints (Example 1, 32 weeks); settings: oral, CS-866 1 mg/kg, troglitazone 25 mg/kg, alone or combined
Procedure: as §1

| SMILES | Lesion surface area (%) Abdominal region [1] | Lesion surface area (%) Arcuate region [1] | Lesion surface area (%) Overall [1] | Lesion surface area (%) Thoracic part [1] | Lesion surface area (%) Abdominal region [2] | Lesion surface area (%) Arcuate region [2] | Lesion surface area (%) Overall [2] | Lesion surface area (%) Thoracic part [2] | Xanthochromia incidence (%) Forelimbs [3] | Xanthochromia incidence (%) Hindlimbs [3] | Xanthochromia incidence (%) Overall [3] |
| --- | --- | --- | --- | --- | --- | --- | --- | --- | --- | --- | --- |
| CN(CCOc1ccc(CC2SC(=O)NC2=O)cc1)c1ccccn1 (centres unmarked) [BRL-49653, 5-[4-[2-[N-methyl-N-(pyridin-2-yl)amino]ethoxy]phenylmethyl]-2,4-thiazolidinedione] | 29 ± 4% | 83 ± 2% | 52 ± 5% | 54 ± 12% | – | – | – | – | – | – | – |
| CCCc1nc(C(C)(C)O)c(C(=O)OCc2oc(=O)oc2C)n1Cc1ccc(-c2ccccc2-c2nnn[nH]2)cc1 [CS-866, (5-methyl-2-oxo-1,3-dioxolen-4-yl)methyl 4-(1-hydroxy-1-methylethyl)-2-propyl-1-[2′-(1H-tetrazol-5-yl)biphenyl-4-ylmethyl]imidazole-5-carboxylate] | 32 ± 8% | 66 ± 5% | 44 ± 7% | 41 ± 10% | 19% | 68% | 34% | 26% | 100% | 100% | 100% |
| CCc1ccc(CCOc2ccc(CC3SC(=O)NC3=O)cc2)nc1 (centres unmarked) [Pioglitazone, 5-[4-[2-(5-ethyl-pyridin-2-yl)ethoxy]phenylmethyl]-2,4-thiazolidinedione] | 32 ± 6% | 65 ± 6% | 52 ± 8% | 62 ± 12% | – | – | – | – | – | – | – |
| Cc1c(C)c2c(c(C)c1O)CCC(C)(COc1ccc(CC3SC(=O)NC3=O)cc1)O2 (centres unmarked) [Troglitazone, 5-[4-(6-hydroxy-2,5,7,8-tetramethylchroman-2-ylmethoxy)benzyl]-2,4-thiazolidinedione] | – | – | – | – | 32% | 80% | 54% | 57% | 93% | 86% | 89% |
